Results as given in ChEMBL document CHEMBL1141956, “New heterocyclic analogues of 4-(2-chloro-5-methoxyanilino)quinazolines as potent and selective c-Src kinase inhibitors” (Bioorg Med Chem Lett, 2005).
Converted amounts (≈) assume the structure as drawn.

What was measured:
[1] = target: Proto-oncogene tyrosine-protein kinase Src (Homo sapiens, UniProt P12931); test: Inhibitory activity against c-Src kinase
[2] = target: Vascular endothelial growth factor receptor 2 (Homo sapiens, UniProt P35968); test: Inhibitory activity against KDR
A549 = test: Inhibition of A549 cell migration; format: functional, cell-based; details: Homo sapiens
[3] = Percent of unbound ligand in rat plasma; format: ADME, organism-based
[4] = Cmax in rat administered with 2 mg/kg, po; format: ADME, organism-based; parameters: dose 2 mg/kg, route oral; details: in vivo
[5] = Solubility in phosphate buffer at pH 7.4; format: physicochemical
Rattus norvegicus = test: AUC(0-6 h) in rat administered with 2 mg/kg, po; format: ADME, organism-based, Plasma; parameters: time < 6 hr, dose 2 mg/kg, route oral; details: in vivo

Proto-oncogene tyrosine-protein kinase Src, sequence (P12931 2-536 limits assumed): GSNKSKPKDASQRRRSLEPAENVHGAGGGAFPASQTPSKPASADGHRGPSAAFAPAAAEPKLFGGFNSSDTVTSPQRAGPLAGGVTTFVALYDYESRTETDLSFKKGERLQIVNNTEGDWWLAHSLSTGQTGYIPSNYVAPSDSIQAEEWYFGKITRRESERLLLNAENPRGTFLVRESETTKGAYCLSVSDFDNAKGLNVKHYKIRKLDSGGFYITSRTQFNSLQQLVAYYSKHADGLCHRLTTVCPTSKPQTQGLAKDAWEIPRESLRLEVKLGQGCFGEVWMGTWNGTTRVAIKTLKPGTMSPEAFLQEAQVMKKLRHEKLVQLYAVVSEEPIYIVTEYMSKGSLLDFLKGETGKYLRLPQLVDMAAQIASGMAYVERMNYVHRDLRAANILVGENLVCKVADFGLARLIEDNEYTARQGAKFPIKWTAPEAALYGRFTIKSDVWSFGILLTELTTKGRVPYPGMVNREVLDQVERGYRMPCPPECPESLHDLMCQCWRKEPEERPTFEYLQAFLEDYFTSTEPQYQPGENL
Vascular endothelial growth factor receptor 2, sequence (P35968 whole entry): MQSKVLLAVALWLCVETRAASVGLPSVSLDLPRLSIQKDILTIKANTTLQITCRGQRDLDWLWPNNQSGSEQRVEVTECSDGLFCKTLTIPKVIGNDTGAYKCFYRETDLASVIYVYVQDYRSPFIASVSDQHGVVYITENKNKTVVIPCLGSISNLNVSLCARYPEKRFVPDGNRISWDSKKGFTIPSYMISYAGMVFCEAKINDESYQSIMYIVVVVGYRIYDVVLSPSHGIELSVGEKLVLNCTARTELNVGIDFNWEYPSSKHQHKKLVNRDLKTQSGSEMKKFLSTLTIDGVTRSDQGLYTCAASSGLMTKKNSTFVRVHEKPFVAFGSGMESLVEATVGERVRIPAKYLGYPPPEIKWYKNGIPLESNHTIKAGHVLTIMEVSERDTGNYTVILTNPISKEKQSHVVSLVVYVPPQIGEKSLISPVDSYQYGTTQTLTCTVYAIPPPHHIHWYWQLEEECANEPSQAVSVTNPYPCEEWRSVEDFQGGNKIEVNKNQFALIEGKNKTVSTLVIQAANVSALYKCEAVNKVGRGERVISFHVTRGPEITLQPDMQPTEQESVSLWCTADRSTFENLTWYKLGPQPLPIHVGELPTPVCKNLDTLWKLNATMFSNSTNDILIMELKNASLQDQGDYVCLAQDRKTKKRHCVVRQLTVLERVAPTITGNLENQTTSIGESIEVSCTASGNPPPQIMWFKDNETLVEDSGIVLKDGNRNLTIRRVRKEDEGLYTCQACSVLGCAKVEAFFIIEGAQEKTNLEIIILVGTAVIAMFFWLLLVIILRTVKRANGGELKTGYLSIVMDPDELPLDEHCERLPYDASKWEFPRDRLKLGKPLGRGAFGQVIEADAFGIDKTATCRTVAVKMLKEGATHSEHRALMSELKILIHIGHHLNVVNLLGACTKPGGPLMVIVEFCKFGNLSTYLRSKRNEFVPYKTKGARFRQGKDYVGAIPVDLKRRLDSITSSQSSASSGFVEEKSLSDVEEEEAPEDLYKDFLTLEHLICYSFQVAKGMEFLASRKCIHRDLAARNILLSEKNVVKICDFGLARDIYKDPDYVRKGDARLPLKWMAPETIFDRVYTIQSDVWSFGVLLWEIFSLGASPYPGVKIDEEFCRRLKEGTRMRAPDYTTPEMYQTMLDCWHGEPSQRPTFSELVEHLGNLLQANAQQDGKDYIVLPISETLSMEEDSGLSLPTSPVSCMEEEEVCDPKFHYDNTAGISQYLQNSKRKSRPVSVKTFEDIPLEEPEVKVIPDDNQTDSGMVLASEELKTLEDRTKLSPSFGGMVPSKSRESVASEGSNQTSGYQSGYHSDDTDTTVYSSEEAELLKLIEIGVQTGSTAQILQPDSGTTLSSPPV

COc1ccc(Cl)c(Nc2ncnc3cc(OCCCN4CCOCC4)cc(OC(C)C)c23)c1
IC50 [1]: 40 nM
IC50 [2]: 30 nM

COc1ccc(Cl)c(Nc2ncnc3cc(OCCCN4CCN(C)CC4)cc(OC(C)C)c23)n1
IC50 [1]: < 4 nM
IC50 (A549): 90 nM
IC50 [2]: 680 nM

COc1ccc(Cl)c(Nc2ncnc3cc(OCCCN4CCCC4)cc(OC(C)C)c23)n1
IC50 [1]: 6 nM
IC50 (A549): 140 nM
IC50 [2]: 900 nM

COc1ccc(Cl)c(Nc2ncnc3cc(OCCN4CCN(C(C)=O)CC4)cc(OC(C)C)c23)n1
fraction unbound [3]: 0.08
Cmax [4]: 310 nM
IC50 [1]: 10 nM
solubility [5]: 43 µM (≈ 22.1 µg/mL)
AUC (Rattus norvegicus): 0.64 uMh
IC50 (A549): 90 nM
IC50 [2]: 6300 nM

COc1ccc(Cl)c(Nc2ncnc3cc(OCCCN4CCOCC4)cc(OC(C)C)c23)n1
IC50 [1]: < 4 nM
IC50 (A549): 90 nM
IC50 [2]: 1900 nM

COc1ccc(Cl)c(Nc2ncnc3cc(OCCN4CCOCC4)cc(OC(C)C)c23)n1
IC50 [1]: 20 nM
IC50 (A549): 130 nM
IC50 [2]: 2900 nM

COc1cnc(Cl)c(Nc2ncnc3cc(OCCN4CCN(C(C)=O)CC4)cc(OC(C)C)c23)n1
Cmax [4]: 420 nM
IC50 [1]: 8 nM
AUC (Rattus norvegicus): 0.61 uMh
IC50 (A549): 140 nM
IC50 [2]: 2800 nM

COc1cnc(Cl)c(Nc2ncnc3cc(OCCCN4CCOCC4)cc(OC(C)C)c23)c1
IC50 [1]: 5 nM
IC50 [2]: 30 nM

COc1ncc(Cl)c(Nc2ncnc3cc(OCCN4CCN(C(C)=O)CC4)cc(OC(C)C)c23)n1
IC50 [1]: 15 nM
IC50 (A549): 270 nM
IC50 [2]: 15000 nM

COc1ccc(Cl)c(Nc2ncnc3cc(OCCCN4CCOCC4)cc(OC4CCOCC4)c23)c1
IC50 [1]: 10 nM
IC50 [2]: 400 nM

COc1cc(Nc2ncnc3cc(OCCCN4CCOCC4)cc(OC4CCOCC4)c23)c(Cl)cn1
IC50 [1]: 400 nM
IC50 [2]: 80 nM

COc1cnc(Cl)c(Nc2ncnc3cc(OCCCN4CCOCC4)cc(OC4CCOCC4)c23)c1
IC50 [1]: 7 nM
IC50 (A549): 290 nM
IC50 [2]: 30 nM

COc1cc(Nc2ncnc3cc(OCCCN4CCOCC4)cc(OC(C)C)c23)c(Cl)cn1
IC50 [1]: 35 nM
IC50 [2]: < 2 nM

COc1ccc(Cl)c(Nc2ncnc3cc(OCCN4CCN(C)CC4)cc(OC(C)C)c23)n1
IC50 [1]: 7 nM
IC50 (A549): 170 nM
IC50 [2]: 570 nM

COc1ccc(Cl)c(Nc2ncnc3cc(OCCN4CCCC4)cc(OC(C)C)c23)n1
IC50 [1]: 15 nM
IC50 (A549): 80 nM
IC50 [2]: 3600 nM

COc1ccc(Cl)c(Nc2ncnc3cc(OCCCN4CCN(C(C)=O)CC4)cc(OC(C)C)c23)n1
IC50 [1]: < 4 nM
IC50 (A549): 90 nM
IC50 [2]: 2700 nM

COc1ccc(Cl)c(Nc2ncnc3cc(OCCCN4CCOCC4)cc(OC4CCOCC4)c23)n1
IC50 [1]: 5 nM
IC50 (A549): 160 nM
IC50 [2]: 5500 nM
